In patent US20110268653A1, “Compositions and Methods Related to Acid Stable Lipid Nanospheres” (The Board of Regents of the University of Texas System, priority 2010, published 2011):

Row | melting point | Structure (SMILES)
1 | 110 to 112 °C | CCCCCCCCCCCC(=O)N1C(CCCCCCCCCCC)NC(=O)CC1C(=O)O (stereo not shown) [Lipid 1d, 3-Dodecanoyl-6-oxo-2-undecylhexahydropyrimidine-4-carboxylic acid]
2 | 55 to 56 °C | CCCCCC(=O)N1C(CCCCC)NC(=O)CC1C(=O)O (stereo not shown) [Lipid 1a, 3-Hexanoyl-6-oxo-2-pentylhexahydropyrimidine-4-carboxylic acid]
3 | 107 to 111 °C | CCCCCCCCCCCCCCCCCC(=O)N1C(CCCCCCCCCCCCCCCCC)NC(=O)CC1C(=O)O (stereo not shown) [ALA17, 17, 2-Heptadecyl-6-oxo-3-stearoylhexahydropyrimidine-4-carboxylic acid]
4 | 105 to 109 °C | CCCCCCCCCCCCCCCCCC(=O)N1C(CCCCCCCCCCC)NC(=O)CC1C(=O)O (stereo not shown) [Lipid 1e, 6-Oxo-3-stearoyl-2-undecylhexahydropyrimidine-4-carboxylic acid]
5 | 104 to 107 °C | CCCCCCCCCCCCCCCCCC1NC(=O)CC(C(=O)O)N1C(=O)CCCCCCCCCCC (stereo not shown) [Lipid 1f, 3-Dodecanoyl-2-heptadecyl-6-oxohexahydropyrimidine-4-carboxylic acid]
6 | 106 to 107 °C | CCCCCCCCCCCC1NC(=O)CC(C(=O)O)N1C(=O)CCCCC (stereo not shown) [Lipid 1c, 3-Hexanoyl-6-oxo-2-undecylhexahydropyrimidine-4-carboxylic acid]
7 | 118 to 120 °C | CCCCCCCCCCCC(=O)N1C(CCCCC)NC(=O)CC1C(=O)O (stereo not shown) [Lipid 1b, 3-Dodecanoyl-6-oxo-2-pentylhexahydropyrimidine-4-carboxylic acid]
